# Experimental data reported in ChEMBL document CHEMBL3826905, “1'-Homonucleosides and their structural analogues: A review” (Eur J Med Chem, 2016).
# How the values were obtained:
# [1] = Inhibition of Escherichia coli methionyl-tRNA synthetase assessed as decrease in [35S]methionyl-tRNA generation
# Isoleucine--tRNA ligase = Isoleucine--tRNA ligase (Escherichia coli K-12, UniProt P00956); assay: Inhibition of Escherichia coli isoleucyl-tRNA synthetase assessed as decrease in [3H]isoleucyl-tRNA generation
# Chain of Isoleucine--tRNA ligase (P00956 whole entry): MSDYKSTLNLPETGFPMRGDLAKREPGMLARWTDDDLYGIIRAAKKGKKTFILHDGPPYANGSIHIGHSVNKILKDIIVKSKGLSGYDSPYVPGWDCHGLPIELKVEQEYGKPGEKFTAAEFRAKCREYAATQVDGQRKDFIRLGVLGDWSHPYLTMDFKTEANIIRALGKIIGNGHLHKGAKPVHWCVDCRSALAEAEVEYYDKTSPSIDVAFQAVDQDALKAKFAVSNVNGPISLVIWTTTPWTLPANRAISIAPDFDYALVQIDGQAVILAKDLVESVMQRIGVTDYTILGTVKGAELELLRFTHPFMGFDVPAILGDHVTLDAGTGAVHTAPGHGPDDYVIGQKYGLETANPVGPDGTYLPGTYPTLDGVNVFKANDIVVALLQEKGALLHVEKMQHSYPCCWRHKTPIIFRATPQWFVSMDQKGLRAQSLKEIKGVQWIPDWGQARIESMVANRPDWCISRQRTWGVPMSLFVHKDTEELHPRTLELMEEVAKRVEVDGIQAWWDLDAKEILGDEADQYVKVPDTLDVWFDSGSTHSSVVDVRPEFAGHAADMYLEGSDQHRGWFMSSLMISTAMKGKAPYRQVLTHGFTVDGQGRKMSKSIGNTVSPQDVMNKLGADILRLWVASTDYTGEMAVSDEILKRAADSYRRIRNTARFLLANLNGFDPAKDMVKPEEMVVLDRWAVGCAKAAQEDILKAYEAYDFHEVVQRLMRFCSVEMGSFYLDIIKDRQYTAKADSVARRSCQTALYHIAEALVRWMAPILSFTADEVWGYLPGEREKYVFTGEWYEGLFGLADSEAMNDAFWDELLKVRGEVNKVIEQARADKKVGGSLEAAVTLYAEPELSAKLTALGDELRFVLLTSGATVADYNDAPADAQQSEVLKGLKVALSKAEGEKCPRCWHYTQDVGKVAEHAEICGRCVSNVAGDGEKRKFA
# CCRF-CEM = assay: Cytostatic activity against human CEM/0 cells; type: functional, cell-based
# [2] = Cytostatic activity against mouse L1210/0 cells; type: functional, cell-based; settings: Mus musculus, L1210/0
# MOLT-4 = assay: Cytostatic activity against human Molt4/C8 cells; type: functional, cell-based; settings: Homo sapiens, MOLT-4
# Influenza A virus = assay: Antiviral activity against Influenza A virus; type: functional, organism-based
# [3] = tested on: Human immunodeficiency virus 2; assay: Antiviral activity against HIV2; type: functional, organism-based
# [4] = tested on: Human immunodeficiency virus 1; assay: Antiviral activity against HIV1; type: functional, organism-based
# [5] = Antiproliferative activity against mouse L1210/0 cells after 48 hrs by trypan blue staining method; type: functional, cell-based; settings: L1210/0, 48 h
# Hepatitis C virus = assay: Antiviral activity against Hepatitis C virus; type: functional, organism-based, Hepacivirus hominis
# [6] = target: T1, Inosine-uridine preferring nucleoside hydrolase (Crithidia fasciculata, UniProt Q27546); assay: Inhibition of Crithidia fasciculata inosine-uridine nucleoside hydrolase expressed in Escherichia coli using p-nitrophenyl beta-D-ribofuranoside as substrate by xanthine oxidase coupled enzyme assay
# T1 sequence (Q27546 whole entry): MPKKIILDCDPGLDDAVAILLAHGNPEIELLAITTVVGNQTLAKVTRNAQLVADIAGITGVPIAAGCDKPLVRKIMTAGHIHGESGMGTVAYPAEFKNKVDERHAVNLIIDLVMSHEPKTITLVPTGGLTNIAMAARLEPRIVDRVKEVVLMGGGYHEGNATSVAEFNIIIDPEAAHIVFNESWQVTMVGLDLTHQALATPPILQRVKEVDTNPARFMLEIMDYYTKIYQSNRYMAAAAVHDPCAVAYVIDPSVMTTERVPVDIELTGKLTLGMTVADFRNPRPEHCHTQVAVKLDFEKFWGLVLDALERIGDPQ
# [7] = target: T2, Inosine-adenosine-guanosine-nucleoside hydrolase (Trypanosoma brucei brucei, UniProt O15727); assay: Inhibition of Trypanosoma brucei brucei inosine-adenosine-guanosine nucleoside hydrolase expressed in Escherichia coli
# T2 sequence (O15727 whole entry): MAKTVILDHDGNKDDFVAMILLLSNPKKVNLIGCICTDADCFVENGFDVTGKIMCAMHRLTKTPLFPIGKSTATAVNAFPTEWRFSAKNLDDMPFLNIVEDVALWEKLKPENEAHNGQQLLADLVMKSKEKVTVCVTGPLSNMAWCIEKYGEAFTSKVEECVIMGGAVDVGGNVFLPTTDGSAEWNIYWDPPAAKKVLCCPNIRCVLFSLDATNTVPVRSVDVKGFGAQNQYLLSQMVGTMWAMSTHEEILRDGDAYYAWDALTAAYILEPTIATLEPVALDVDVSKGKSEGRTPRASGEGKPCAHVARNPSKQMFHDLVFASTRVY
# Human alphaherpesvirus 3 = assay: Antiviral activity against TK-deficient Varicella-zoster virus infected in HEL cells; type: functional, organism-based; settings: Human alphaherpesvirus 3, HEL
# Cytomegalovirus [8] = assay: Antiviral activity against Cytomegalovirus AD169 infected in HEL cells; type: functional, organism-based; settings: Human betaherpesvirus 5, AD169, HEL
# Cytomegalovirus [9] = assay: Antiviral activity against Cytomegalovirus Davis 07/1 infected in HEL cells; type: functional, organism-based; settings: Human betaherpesvirus 5, Davis 07/1, HEL
# [10] = Antiproliferative activity against human CEM/0 cells; type: functional, cell-based; settings: CCRF-CEM
# [11] = Antiproliferative activity against mouse L1210/0 cells; type: functional, cell-based
# [12] = Antiproliferative activity against human Molt4/C8 cells; type: functional, cell-based; settings: MOLT-4
compound,measurement,setting,value
CSCC[C@H](N)C(=O)OC[C@H]1O[C@@H](CCn2cnc3c(N)ncnc32)[C@H](O)[C@@H]1O,IC50,[1],8.3 µM
CSCC[C@H](N)C(=O)N(O)C[C@H]1O[C@@H](Cn2cnc3c(N)ncnc32)[C@H](O)[C@@H]1O,IC50,[1],3.6 µM
CC[C@H](C)[C@H](N)C(=O)OC[C@H]1O[C@@H](Cn2cnc3c(N)ncnc32)[C@H](O)[C@@H]1O,IC50,Isoleucine--tRNA ligase,> 128 µM
CSCC[C@H](N)C(=O)OC[C@H]1O[C@@H](n2cnc3c(N)ncnc32)[C@H](O)[C@@H]1O,IC50,[1],5 µM
CC[C@H](C)[C@H](N)C(=O)N(O)C[C@H]1O[C@@H](Cn2cnc3c(N)ncnc32)[C@H](O)[C@@H]1O,IC50,Isoleucine--tRNA ligase,> 128 µM
CSCC[C@H](N)C(=O)OC[C@H]1O[C@@H](Cn2cnc3c(NCc4ccccc4)ncnc32)[C@H](O)[C@@H]1O,IC50,[1],3.6 µM
CSCC[C@H](N)C(=O)OC[C@H]1O[C@@H](Cn2cnc3c(N)ncnc32)[C@H](O)[C@@H]1O,IC50,[1],3.6 µM
CCOc1ncnc2c1ncn2C[C@@H]1C[C@H](CO)c2ccccc21,IC50,CCRF-CEM,24 µg/mL
same,IC50,[2],24 µg/mL
same,IC50,MOLT-4,24 µg/mL
CCCNc1ncnc2c1ncn2C[C@@H]1C[C@H](CO)c2ccccc21,IC50,CCRF-CEM,24 µg/mL
same,IC50,[2],24 µg/mL
same,IC50,MOLT-4,24 µg/mL
Cc1ccc(-c2ncnc3c2ncn3C[C@@H]2C[C@H](CO)c3ccccc32)cc1,IC50,CCRF-CEM,1.4 µg/mL
same,IC50,[2],1.4 µg/mL
same,IC50,MOLT-4,1.4 µg/mL
Nc1ncnc2c1ncn2C[C@@H]1C[C@H](CO)c2ccccc21,IC50,CCRF-CEM,24 µg/mL
same,IC50,[2],24 µg/mL
same,IC50,MOLT-4,24 µg/mL
Nc1ncnc2c1ncn2C[C@H]1C[C@H](O)[C@@H](CO)O1,IC50,Influenza A virus,49.2 µg/mL
CC1(C)[C@@H](Cn2cnc3c(N)nc(N)nc32)CC[C@@]1(C)CO,EC50,[3],4 µg/mL
same,EC50,[4],4 µg/mL
COc1ncnc2c1ncn2C[C@@H]1C[C@H](CO)c2ccccc21,IC50,CCRF-CEM,24 µg/mL
same,IC50,[2],24 µg/mL
same,IC50,MOLT-4,24 µg/mL
OC[C@H]1C[C@@H](Cn2cnc3c(O)ncnc32)c2ccccc21,IC50,CCRF-CEM,24 µg/mL
same,IC50,[2],24 µg/mL
same,IC50,MOLT-4,24 µg/mL
OC[C@@H]1C=C[C@H](Cn2cnc3c(O)ncnc32)C1,IC50,[5],> 200 µM
Cc1cn(C[C@H]2C[C@H](OCc3ccccc3)[C@@H](COCc3ccccc3)O2)c(=O)[nH]c1=O,IC50,Influenza A virus,70.3 µg/mL
Nc1ncnc2c1ncn2C[C@H]1C=C[C@@H](CO)C1,IC50,[5],> 200 µM
Nc1nc2c(ncn2C[C@H]2C=C[C@@H](CO)C2)c(=O)[nH]1,IC50,[5],> 200 µM
O[C@H]1C[C@@]2(Cn3cnc4c(Cl)ncnc43)O[C@@H]1c1ccccc12,EC50,Hepatitis C virus,45.1 µM
Nc1ncnc2c1N=CC2[C@@H]1N[C@H](CO)[C@@H](O)[C@H]1O (stereo partly specified),Ki,[6],0.007 µM
same,Ki,[7],0.003 µM
O=c1[nH]cnc2c1ncn2C[C@H]1C[C@H](O)[C@@H](CO)O1,IC50,Influenza A virus,25.2 µg/mL
OCC12C=CC(Cn3cnc4c(Cl)ncnc43)(O1)c1ccccc12 (stereo unspecified),EC50,Hepatitis C virus,45.1 µM
CC1(C)[C@@H](Cn2cnc3c(NC4CC4)nc(N)nc32)CC[C@@]1(C)CO,IC50,[5],13.9 µg/mL
OC[C@@]12O[C@@](Cn3cnc4c(Cl)ncnc43)(c3ccccc31)[C@H](O)[C@@H]2O,EC50,Hepatitis C virus,45.1 µM
Nc1ncnc2c1ncn2C[C@H]1C[C@H](OCc2ccccc2)[C@@H](COCc2ccccc2)O1,IC50,Influenza A virus,39.9 µg/mL
Cn1ncc2c1[C@@H](CO[Si](c1ccccc1)(c1ccccc1)C(C)(C)C)C[C@H]2Cn1cnc2c(O)ncnc21,IC50,CCRF-CEM,3.2 µg/mL
same,IC50,[2],3.2 µg/mL
same,IC50,MOLT-4,3.2 µg/mL
CC(C)(C)[Si](OC[C@H]1C[C@@H](Cn2cnc3c(N)ncnc32)c2cn(Cc3ccccc3)nc21)(c1ccccc1)c1ccccc1,EC50,Human alphaherpesvirus 3,1.5 µM
same,EC50,Cytomegalovirus [8],0.5 µM
same,EC50,Cytomegalovirus [9],0.5 µM
O=c1[nH]cnc2c1ncn2C[C@H]1C[C@H](OCc2ccccc2)[C@@H](COCc2ccccc2)O1,IC50,Influenza A virus,24.3 µg/mL
OC[C@H]1N[C@@H](Cn2cnc3c(O)ncnc32)[C@H](O)[C@@H]1O,Ki,[6],5.4 µM
same,Ki,[7],3.6 µM
OCC12CCC(Cn3cnc4c(Cl)ncnc43)(O1)c1ccccc12 (stereo unspecified),EC50,Hepatitis C virus,45.1 µM
CC(C)Nc1ncnc2c1ncn2C[C@@H]1C[C@H](CO)c2ccccc21,IC50,CCRF-CEM,24 µg/mL
same,IC50,[2],24 µg/mL
same,IC50,MOLT-4,24 µg/mL
CC(C)(C)[Si](OC[C@H]1C[C@@H](Cn2cnc3c(Cl)nc(N)nc32)c2cn(Cc3ccccc3)nc21)(c1ccccc1)c1ccccc1,EC50,Human alphaherpesvirus 3,2.1 µM
same,EC50,Cytomegalovirus [8],0.44 µM
same,EC50,Cytomegalovirus [9],0.39 µM
Cn1ncc2c1[C@H](Cn1cnc3c(Cl)ncnc31)C[C@@H]2CO[Si](c1ccccc1)(c1ccccc1)C(C)(C)C,IC50,CCRF-CEM,3.2 µg/mL
same,IC50,[2],3.2 µg/mL
same,IC50,MOLT-4,3.2 µg/mL
Cc1cn(C[C@H]2C[C@H](O)[C@@H](CO)O2)c(=O)[nH]c1=O,IC50,Influenza A virus,70.4 µg/mL
O=c1ccn(C[C@H]2C[C@H](OCc3ccccc3)[C@@H](COCc3ccccc3)O2)c(=O)[nH]1,IC50,Influenza A virus,108 µg/mL
Nc1nc(O)c2ncn(C[C@@H]3N[C@H](CO)[C@@H](O)[C@H]3O)c2n1,Ki,[6],5.4 µM
same,Ki,[7],3.6 µM
Nc1ccn(C[C@H]2C[C@H](O)[C@@H](CO)O2)c(=O)n1,IC50,Influenza A virus,67.3 µg/mL
Nc1nc(Cl)c2ncn(C[C@@H]3C[C@H](CO)c4c(-c5ccccc5)nnc(-c5ccccc5)c43)c2n1,IC50,[5],> 200 µM
Nc1ncnc2c1ncn2C[C@H]1CCC[C@H]1CO,IC50,[10],100 µg/mL
same,IC50,[11],100 µg/mL
same,IC50,[12],100 µg/mL
OC[C@H]1C[C@@H](Cn2cnc3c(Cl)ncnc32)c2ccccc21,IC50,CCRF-CEM,24 µg/mL
same,IC50,[2],24 µg/mL
same,IC50,MOLT-4,24 µg/mL
Nc1nc(NC2CCCC2)c2ncn(C[C@@H]3C[C@H](CO)c4c(-c5ccccc5)nnc(-c5ccccc5)c43)c2n1,IC50,[5],65.7 µM
Clc1ncnc2c1ncn2CC12C=CC(O1)c1ccccc12 (stereo unspecified),EC50,Hepatitis C virus,6.31 µM
Cn1ncc2c1[C@H](Cn1cnc3c(Cl)nc(N)nc31)C[C@@H]2CO,IC50,CCRF-CEM,3.2 µg/mL
same,IC50,[2],3.2 µg/mL
same,IC50,MOLT-4,3.2 µg/mL
O=c1[nH]c(=O)n([C@H]2CC[C@@H](CO)C2)cc1I,IC50,[11],73 µg/mL
same,IC50,[12],73 µg/mL
Nc1ccn(C[C@H]2C[C@H](OCc3ccccc3)[C@@H](COCc3ccccc3)O2)c(=O)n1,IC50,Influenza A virus,57.4 µg/mL
OCC12CCC(O1)c1cc3ccccc3cc12 (stereo unspecified),EC50,Hepatitis C virus,6.31 µM
O=C(OCC12C=CC(O1)c1cc3ccccc3cc12)c1ccccc1 (stereo unspecified),EC50,Hepatitis C virus,6.31 µM
Cn1ncc2c1[C@H](Cn1ccc(=O)[nH]c1=O)C[C@@H]2CO[Si](c1ccccc1)(c1ccccc1)C(C)(C)C,IC50,CCRF-CEM,3.2 µg/mL
same,IC50,[2],3.2 µg/mL
same,IC50,MOLT-4,3.2 µg/mL
Cc1cn(C[C@@H]2C[C@H](CO)c3ccccc32)c(=O)[nH]c1=O,IC50,CCRF-CEM,81 µg/mL
same,IC50,[2],81 µg/mL
same,IC50,MOLT-4,81 µg/mL
OC[C@H]1C[C@@H](Cn2cnc3c(-c4ccc(Cl)cc4)ncnc32)c2ccccc21,IC50,CCRF-CEM,0.63 µg/mL
same,IC50,[2],0.63 µg/mL
same,IC50,MOLT-4,0.63 µg/mL
OC[C@H]1C[C@@H](Cn2cnc3c(NC4CC4)ncnc32)c2ccccc21,IC50,CCRF-CEM,24 µg/mL
same,IC50,[2],24 µg/mL
same,IC50,MOLT-4,24 µg/mL
OCC1CCCC1n1cnc2c(Cl)ncnc21 (stereo unspecified),IC50,[10],19 µg/mL
same,IC50,[11],19 µg/mL
same,IC50,[12],19 µg/mL
O=c1[nH]c(=O)n(C2CCCC2CO)cc1I (stereo unspecified),IC50,[10],65.8 µg/mL
same,IC50,[11],65.8 µg/mL
same,IC50,[12],65.8 µg/mL
Nc1nc2c(ncn2COC(CO)CO)c(=O)[nH]1 [GANCICLOVIR],EC50,Cytomegalovirus [8],0.25 µM
same,EC50,Cytomegalovirus [9],0.4 µM
